According to patent publication US12006328B2, “Thieno[2,3-d]pyrimidin-4-one derivatives as NMDAR modulators and uses related thereto” (Emory University, priority 2014, dated 2024):

Legend:
Assay type in all cases: cell-based
[1] = molecular target: GluN2C-containing NMDA receptors (Homo sapiens, UniProt Q14957); assay: Two-electrode voltage-clamp recordings from Xenopus laevis oocytes, GluN2C; conditions: for I10 μM/ICONTROL (mean ± SEM, %) Glu N2C: 10 μM test compound with glutamate 100 μM and glycine 30 μM, Tables 1-5; for I10 μM/ICONTROL (mean ± SEM, %) Glu N2C / maximal potentiation Glu N2C: percent of response without compound; for EC50 / IC50: glutamate 100 μM, glycine 30 μM, Hill fit; for EC50: read-out: EC50 Glu N2C; for IC50: read-out: IC50 Glu N2C
GluN2C-containing NMDA receptors, sequence (Q14957 20-1233, other chains not shown): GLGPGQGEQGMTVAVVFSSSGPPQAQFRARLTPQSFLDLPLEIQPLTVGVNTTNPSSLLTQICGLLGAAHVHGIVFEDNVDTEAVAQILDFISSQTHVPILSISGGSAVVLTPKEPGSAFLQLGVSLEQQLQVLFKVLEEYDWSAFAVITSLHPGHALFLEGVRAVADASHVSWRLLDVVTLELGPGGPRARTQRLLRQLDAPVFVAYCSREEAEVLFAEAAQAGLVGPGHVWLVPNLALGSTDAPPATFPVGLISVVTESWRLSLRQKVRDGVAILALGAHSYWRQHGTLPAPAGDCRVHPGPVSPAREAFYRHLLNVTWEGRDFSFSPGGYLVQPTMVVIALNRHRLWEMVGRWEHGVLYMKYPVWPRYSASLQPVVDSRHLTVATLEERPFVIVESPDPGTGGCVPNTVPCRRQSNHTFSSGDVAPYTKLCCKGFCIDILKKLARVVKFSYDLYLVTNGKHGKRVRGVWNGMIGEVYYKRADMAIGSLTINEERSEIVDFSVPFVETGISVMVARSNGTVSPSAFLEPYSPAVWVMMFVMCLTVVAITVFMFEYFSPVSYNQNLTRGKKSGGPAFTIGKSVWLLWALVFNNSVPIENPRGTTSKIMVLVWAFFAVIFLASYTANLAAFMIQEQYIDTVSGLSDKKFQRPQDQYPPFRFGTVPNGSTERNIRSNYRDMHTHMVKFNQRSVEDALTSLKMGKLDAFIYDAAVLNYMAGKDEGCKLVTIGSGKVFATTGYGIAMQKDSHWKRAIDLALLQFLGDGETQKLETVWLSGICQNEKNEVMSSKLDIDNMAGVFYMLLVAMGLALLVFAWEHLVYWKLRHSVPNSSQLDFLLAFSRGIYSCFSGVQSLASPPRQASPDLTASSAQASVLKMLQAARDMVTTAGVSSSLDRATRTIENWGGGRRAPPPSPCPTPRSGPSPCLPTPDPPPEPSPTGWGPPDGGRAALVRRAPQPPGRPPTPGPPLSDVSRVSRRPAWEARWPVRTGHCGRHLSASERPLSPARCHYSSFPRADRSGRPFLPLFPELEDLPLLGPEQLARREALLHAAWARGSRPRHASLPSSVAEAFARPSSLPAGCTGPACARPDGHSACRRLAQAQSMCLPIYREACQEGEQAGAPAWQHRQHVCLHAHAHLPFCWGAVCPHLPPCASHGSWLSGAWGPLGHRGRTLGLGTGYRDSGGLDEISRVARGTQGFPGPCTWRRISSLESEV
Procedure: (§1) Xenopus laevis oocytes were injected with cRNA encoding the NMDA receptor subunits. Two to seven days after injection, two-electrode voltage-clamp recordings were performed. Extracellular solutions were made from a solutions containing (in mM) 90 NaCl, 3 KCl, 10 HEPES, 0.5 BaCl2, 0.01 EDTA (pH 7.4 with NaOH). Voltage and current electrodes were filled with 0.3 M and 3.0 M KCl, respectively.
(§2) Potency was determined by adding increasing concentrations of test compound to saturating concentrations of glutamate (100 μM) and glycine (30 μM), and the response amplitude measured. The response in the presence of each concentration of test compound plus agonists was expressed as a percent of the response in the absence of test compound.

[2] = molecular target: GluN2B-containing NMDA receptors (Homo sapiens, UniProt Q13224); assay: Two-electrode voltage-clamp recordings from Xenopus laevis oocytes, GluN2B; conditions: for I10 μM/ICONTROL (mean ± SEM, %) Glu N2B: 10 μM test compound with glutamate 100 μM and glycine 30 μM, Tables 1-5; for I10 μM/ICONTROL (mean ± SEM, %) Glu N2B / maximal potentiation Glu N2B: percent of response without compound; for EC50 / IC50: glutamate 100 μM, glycine 30 μM, Hill fit; for EC50: read-out: EC50 Glu N2B; for IC50: read-out: IC50 Glu N2B
GluN2B-containing NMDA receptors, sequence (Q13224 27-1484, other chains not shown): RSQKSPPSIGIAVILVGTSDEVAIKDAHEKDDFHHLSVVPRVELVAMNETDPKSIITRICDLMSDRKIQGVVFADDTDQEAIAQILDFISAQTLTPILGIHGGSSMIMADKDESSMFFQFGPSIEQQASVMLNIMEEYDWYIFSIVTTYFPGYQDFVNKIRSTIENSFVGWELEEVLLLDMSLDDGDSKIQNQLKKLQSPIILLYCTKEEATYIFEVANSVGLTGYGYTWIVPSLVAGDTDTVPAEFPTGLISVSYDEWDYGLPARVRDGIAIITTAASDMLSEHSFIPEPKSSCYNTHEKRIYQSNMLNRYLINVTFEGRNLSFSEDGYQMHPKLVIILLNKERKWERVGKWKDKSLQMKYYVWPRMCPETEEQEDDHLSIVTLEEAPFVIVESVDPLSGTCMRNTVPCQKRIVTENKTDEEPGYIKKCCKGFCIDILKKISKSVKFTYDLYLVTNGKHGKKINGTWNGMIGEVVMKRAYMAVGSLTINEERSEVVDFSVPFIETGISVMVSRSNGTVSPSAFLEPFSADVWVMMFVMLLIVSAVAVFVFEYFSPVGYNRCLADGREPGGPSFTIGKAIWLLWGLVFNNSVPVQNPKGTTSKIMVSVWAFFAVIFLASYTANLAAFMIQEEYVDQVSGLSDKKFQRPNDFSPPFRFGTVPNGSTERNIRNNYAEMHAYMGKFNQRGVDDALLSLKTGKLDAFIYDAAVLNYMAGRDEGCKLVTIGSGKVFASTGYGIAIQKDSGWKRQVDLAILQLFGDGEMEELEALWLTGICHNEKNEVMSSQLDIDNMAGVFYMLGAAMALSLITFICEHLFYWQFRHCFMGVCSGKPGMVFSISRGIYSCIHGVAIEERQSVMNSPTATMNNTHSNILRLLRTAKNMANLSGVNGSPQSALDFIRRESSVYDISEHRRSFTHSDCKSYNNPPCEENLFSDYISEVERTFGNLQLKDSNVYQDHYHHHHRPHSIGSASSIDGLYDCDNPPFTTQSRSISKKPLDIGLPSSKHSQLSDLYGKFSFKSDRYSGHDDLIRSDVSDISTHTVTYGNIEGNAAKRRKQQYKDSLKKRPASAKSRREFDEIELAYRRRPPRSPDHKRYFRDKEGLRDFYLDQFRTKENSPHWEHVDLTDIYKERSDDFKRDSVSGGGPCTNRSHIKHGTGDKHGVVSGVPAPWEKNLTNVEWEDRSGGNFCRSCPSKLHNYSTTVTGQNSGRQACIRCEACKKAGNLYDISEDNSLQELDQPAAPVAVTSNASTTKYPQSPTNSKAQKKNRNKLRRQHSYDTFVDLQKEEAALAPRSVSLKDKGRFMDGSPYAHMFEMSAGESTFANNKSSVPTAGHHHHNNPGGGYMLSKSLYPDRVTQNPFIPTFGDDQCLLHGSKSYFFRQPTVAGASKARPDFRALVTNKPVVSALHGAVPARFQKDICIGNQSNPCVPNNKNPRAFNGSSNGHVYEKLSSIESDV
Procedure: as §1, §2

[3] = molecular target: GluN2D-containing NMDA receptors (Homo sapiens, UniProt O15399); assay: Two-electrode voltage-clamp recordings from Xenopus laevis oocytes, GluN2D; conditions: for I10 μM/ICONTROL (mean ± SEM, %) Glu N2D: 10 μM test compound with glutamate 100 μM and glycine 30 μM, Tables 1-5; for I10 μM/ICONTROL (mean ± SEM, %) Glu N2D / maximal potentiation Glu N2D: percent of response without compound; for EC50 / IC50: glutamate 100 μM, glycine 30 μM, Hill fit; for EC50: read-out: EC50 Glu N2D; for IC50: read-out: IC50 Glu N2D
GluN2D-containing NMDA receptors, sequence (O15399 28-1336, other chains not shown): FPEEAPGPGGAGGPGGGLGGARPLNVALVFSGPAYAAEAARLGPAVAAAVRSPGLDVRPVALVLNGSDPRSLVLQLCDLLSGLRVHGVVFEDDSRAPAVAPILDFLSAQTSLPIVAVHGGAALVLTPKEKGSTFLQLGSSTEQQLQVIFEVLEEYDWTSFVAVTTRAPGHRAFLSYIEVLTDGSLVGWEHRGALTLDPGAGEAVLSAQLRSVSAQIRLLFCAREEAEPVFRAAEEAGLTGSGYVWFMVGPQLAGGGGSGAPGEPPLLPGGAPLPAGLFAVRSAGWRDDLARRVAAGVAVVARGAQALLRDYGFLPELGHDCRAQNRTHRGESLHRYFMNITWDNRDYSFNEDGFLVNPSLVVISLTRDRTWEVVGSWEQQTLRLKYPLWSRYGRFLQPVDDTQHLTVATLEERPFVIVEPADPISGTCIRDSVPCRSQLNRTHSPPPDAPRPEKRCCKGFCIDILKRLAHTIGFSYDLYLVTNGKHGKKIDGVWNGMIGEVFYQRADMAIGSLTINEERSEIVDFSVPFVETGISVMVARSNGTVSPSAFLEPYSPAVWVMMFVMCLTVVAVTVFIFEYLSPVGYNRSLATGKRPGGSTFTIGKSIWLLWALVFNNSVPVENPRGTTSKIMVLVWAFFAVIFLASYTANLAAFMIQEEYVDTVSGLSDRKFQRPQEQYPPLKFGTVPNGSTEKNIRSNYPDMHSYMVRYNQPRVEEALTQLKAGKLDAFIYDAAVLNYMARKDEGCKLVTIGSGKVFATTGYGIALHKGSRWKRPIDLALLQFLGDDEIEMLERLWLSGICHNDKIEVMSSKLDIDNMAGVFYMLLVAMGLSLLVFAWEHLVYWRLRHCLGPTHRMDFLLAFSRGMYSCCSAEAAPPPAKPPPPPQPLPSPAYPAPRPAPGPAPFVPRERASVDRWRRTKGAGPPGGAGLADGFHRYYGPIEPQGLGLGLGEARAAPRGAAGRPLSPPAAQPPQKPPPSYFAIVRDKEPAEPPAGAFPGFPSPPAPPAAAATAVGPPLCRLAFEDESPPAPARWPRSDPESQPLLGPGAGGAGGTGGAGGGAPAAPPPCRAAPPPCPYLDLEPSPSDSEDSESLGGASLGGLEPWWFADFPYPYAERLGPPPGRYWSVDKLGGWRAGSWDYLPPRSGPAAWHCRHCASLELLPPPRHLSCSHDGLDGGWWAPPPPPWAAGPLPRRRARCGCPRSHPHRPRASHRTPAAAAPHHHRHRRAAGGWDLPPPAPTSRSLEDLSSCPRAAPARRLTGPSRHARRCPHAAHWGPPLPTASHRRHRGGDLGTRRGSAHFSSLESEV
Procedure: as §1, §2

[4] = Table 1, in brackets after EC50
[5] = Table 2, in brackets below IC50

Structure (SMILES) | I10 μM/ICONTROL (mean ± SEM, %) Glu N2C [1] | I10 μM/ICONTROL (mean ± SEM, %) Glu N2B [2] | I10 μM/ICONTROL (mean ± SEM, %) Glu N2D [3] | IC50 ([1]; Table 2) | maximal potentiation Glu N2C [1, 5] | IC50 ([3]; Table 2) | maximal potentiation Glu N2D [3, 5] | further results
Cc1sc2ncn(CC(=O)N3CCCC3)c(=O)c2c1-c1ccc(N=[N+]=[N-])cc1 [4-N3—Ph / Me] | 146 ± 6.4% | 135 ± 5.5% | 128 ± 2.6% |  |  |  |  | EC50 ([1]; Table 1): 54 µM; maximal potentiation Glu N2C [1, 4]: 485%; EC50 ([2]; Table 1): 54 µM; maximal potentiation Glu N2B [2, 4]: 304%; EC50 ([3]; Table 1): 50 µM; maximal potentiation Glu N2D [3, 4]: 426%
Cc1sc2ncn(CC(=O)N3CCCC3)c(=O)c2c1-c1cccc(I)c1 [3-I—Ph / Me] | 401 ± 36.4% | 246 ± 14.9% | 364 ± 31.6% |  |  |  |  | EC50 ([1]; Table 1): 7.6 µM; maximal potentiation Glu N2C [1, 4]: 622%; EC50 ([2]; Table 1): 3.7 µM; maximal potentiation Glu N2B [2, 4]: 249%; EC50 ([3]; Table 1): 15 µM; maximal potentiation Glu N2D [3, 4]: 1068%
Cc1sc2ncn(CC(=O)N3CCCC3)c(=O)c2c1-c1ccc(Cl)cc1 [1 / 4-Cl—Ph / Me / —Npyrrolidine] |  |  |  | 15 µM | (347) % | 23 µM | (381) % | IC50 ([2]; Table 2): 11 µM; maximal potentiation Glu N2B [2, 5]: (223) %
Cc1sc2ncn(CC(=O)N3CCCCC3)c(=O)c2c1-c1ccc(Cl)cc1 [1 / 4-Cl—Ph / Me / —Npiperidine] |  |  |  | 136 µM | (232) % | 52 µM | (163) % | 
Cc1sc2ncn(CC(=O)N3CCCCC3)c(=O)c2c1-c1cc(C(F)(F)F)cc(C(F)(F)F)c1 [1 / 3,5-CF3—Ph / Me / —Npiperidine] |  |  |  | 1.4 µM | (155) % |  |  | 
Cc1sc2ncn(CC(=O)N3CCCC3)c(=O)c2c1-c1ccc(Br)cc1 [4-Br—Ph / Me] |  |  |  |  |  |  |  | EC50 ([1]; Table 1): 60 µM; maximal potentiation Glu N2C [1, 4]: 449%; EC50 ([2]; Table 1): 11.3 µM; maximal potentiation Glu N2B [2, 4]: 163%; EC50 ([3]; Table 1): 79 µM; maximal potentiation Glu N2D [3, 4]: 400%
Cc1sc2ncn(CC(=O)N3CCCCC3)c(=O)c2c1-c1cccc(I)c1 [1 / 3-I—Ph / Me / —Npiperidine] | 145 ± 11.4% |  | 124 ± 4.8% |  |  |  |  | 
Cc1sc2ncn(CC(=O)N3CCCC3)c(=O)c2c1-c1cc(F)cc(F)c1 [3,5-F—Ph / Me] | 114 ± 0.9% | 107 ± 2.7% | 116 ± 4.4% |  |  |  |  | EC50 ([1]; Table 1): 132 µM; maximal potentiation Glu N2C [1, 4]: 458%; EC50 ([2]; Table 1): 96 µM; maximal potentiation Glu N2B [2, 4]: 229%; EC50 ([3]; Table 1): 204 µM; maximal potentiation Glu N2D [3, 4]: 748%
COc1ccc(C(=O)Cn2cnc3sc(C)c(-c4cccc(I)c4)c3c2=O)cc1 [1 / 3-I—Ph / Me / 4-OMe—Ph] | 94 ± 1.94% | 84 ± 5.2% | 94 ± 1.1% |  |  |  |  | 
C#CCn1cnc2sc(C)c(-c3cccc(Cl)c3)c2c1=O [—C≡CH] | 98 ± 7.9% | 116 ± 4.0% | 98 ± 4.3% |  |  |  |  | 
Cc1sc2ncn(CC(=O)N3CCCC3)c(=O)c2c1-c1cccc(C(F)(F)F)c1 [3-CF3—Ph / Me] | 368 ± 29.0% | 211 ± 11.3% | 480 ± 74.3% |  |  |  |  | EC50 ([1]; Table 1): 13 µM; maximal potentiation Glu N2C [1, 4]: 748%; EC50 ([2]; Table 1): 6 µM; maximal potentiation Glu N2B [2, 4]: 282%; EC50 ([3]; Table 1): 25 µM; maximal potentiation Glu N2D [3, 4]: 1735%
Cc1sc2ncn(CC(=O)c3ccccc3)c(=O)c2c1-c1cccc(I)c1 [1 / 3-I—Ph / Me / Ph] | 161 ± 10.9% | 139 ± 3.9% | 133 ± 3.1% | 15 µM | (273) % | 41 µM | (305) % | IC50 ([2]; Table 2): 7.9 µM; maximal potentiation Glu N2B [2, 5]: (169) %
CCOC(=O)CNC(=O)Cn1cnc2sc(C)c(-c3ccc(Br)cc3)c2c1=O [1 / 4-Br—Ph / Me / —NHCH2COOEt] | 104 ± 2.5% | 96 ± 2.1% | 104 ± 0.6% |  |  |  |  | 
Cc1sc2ncn(CC(=O)OC(C)(C)C)c(=O)c2c1-c1cccc(I)c1 [1 / 3-I—Ph / Me / OtBu] | 101 ± 6.8% | 87 ± 3.9% | 94 ± 4.3% |  |  |  |  | 
Cc1sc2ncn(CC(=O)C3CCCC3)c(=O)c2c1-c1cccc(I)c1 [1 / 3-I—Ph / Me / -cyclopentyl] | 166 ± 9.5% |  | 133 ± 3.0% | 9.4 µM | (225) % | 14 µM | (191) % | 
Cc1sc2ncn(CC(=O)N3CCCCC3)c(=O)c2c1-c1cc(Br)cc(Br)c1 [1 / 3,5-Br—Ph / Me / —Npiperidine] | 232 ± 14.4% |  | 179 ± 10.1% | 4.3 µM | (233) % |  |  | 
Cc1ccc(-c2csc3ncn(CC(=O)N4CCC4)c(=O)c23)cc1 [1 / 4-Me—Ph / H / —Nazetidine] |  |  |  | > 100 µM |  | 57 µM | (0) % | 
Cc1sc2ncn(CC(=O)c3ccc(Cl)cc3Cl)c(=O)c2c1-c1cccc(I)c1 [1 / 3-I—Ph / Me / 2,4-Cl—Ph] | 96 ± 4.8% |  | 93 ± 1.8% |  |  |  |  | 
Cc1sc2ncn(CC(=O)N3CCCCC3)c(=O)c2c1-c1ccc(Br)c(Br)c1 [1 / 3,4-Br—Ph / Me / —Npiperidine] | 168 ± 13.9% |  | 143 ± 3.2% | 15 µM | (300) % | 94 µM | (600) % | 
CON(C)C(=O)Cn1cnc2sc(C)c(-c3cccc(I)c3)c2c1=O [1 / 3-I—Ph / Me / —N(OMe)Me] | 109 ± 4.9% |  | 119 ± 8.9% |  |  |  |  | 
